# According to US20240218022A1, “ANTI-VISTA MACROCYCLIC PEPTIDES AND COMPOSITIONS” (BRISTOL-MYERS SQUIBB COMPANY, priority 2022, published 2024):
# Starred links: 1 amine or outer side, 2 acyl side, 3 side chain; linkers in the order of their positions; H or OH if unused. Positions of bridges follow the written chain, without caps; N, C: chain ends. Non-standard residues stand in square brackets, D forms with d. Residues, ends and D or L forms follow the SMILES beside them. ξ: configuration not given here. Phe(4-COOH) = N[C@@H](Cc1ccc(C(=O)O)cc1)C(=O)O; γGlu = O=C(O)[C@H](CCC(=O)[*:2])N[*:1]; βAsp = O=C(O)[C@H](CC(=O)[*:2])N[*:1]; NMeF = CN[C@@H](Cc1ccccc1)C(=O)O; Ile(3ξ) = CCC(C)[C@H](N)C(=O)O; NMeL = CN[C@@H](CC(C)C)C(=O)O; Ahp(2) = CCCCC[C@H](N)C(=O)O; NMeNle = CCCC[C@H](NC)C(=O)O; Tle = CC(C)(C)[C@H](N)C(=O)O; NHexGly = CCCCCCNCC(=O)O; NMeA = CN[C@@H](C)C(=O)O; Nle = CCCC[C@H](N)C(=O)O; Orn = NCCC[C@H](N)C(=O)O; Aun = NCCCCCCCCCCC(=O)O; AEEA = NCCOCCOCC(=O)O
# Target: T1, mouse VISTA (mVISTA) (Mus musculus, UniProt Q9D659)
# T1 construct: expressed in transfected cells; host or cells: Human embryonic kidney 293T cells
# T1 sequence (Q9D659 33-308): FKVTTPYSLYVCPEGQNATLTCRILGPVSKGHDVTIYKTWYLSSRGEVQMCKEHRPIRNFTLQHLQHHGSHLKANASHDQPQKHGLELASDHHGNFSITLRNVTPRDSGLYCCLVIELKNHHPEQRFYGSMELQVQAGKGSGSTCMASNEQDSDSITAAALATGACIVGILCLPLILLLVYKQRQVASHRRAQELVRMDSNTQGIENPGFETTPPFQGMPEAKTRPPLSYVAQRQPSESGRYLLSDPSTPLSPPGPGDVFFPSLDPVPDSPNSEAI
# Assay: Cell-Based Binding High-Content Assay For mVISTA (HC CBA mVISTA)
# Conditions: read-out: HC CBA mVISTA IC50
# Outline: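 Read-out: Alexa 647–streptavidin signal imaged on fixed, Hoechst-stained mVISTA-293T cells, with IC50 taken from a four-parameter logistic curve. Compounds competed with 2 nM biotinylated peptide for 30 min at room temperature, tested under both no-wash and wash (1 h compound, media exchange, 1 h) formats.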
row,Structure (SMILES),IC50 [nM]
1,CCCCCCN1CC(=O)N[C@@H](Cc2ccc(O)cc2)C(=O)N[C@@H](CCCCC)C(=O)N[C@@H](CC(N)=O)C(=O)N[C@@H](CCCNC(=N)N)C(=O)N(C)[C@@H](CCCC)C(=O)N[C@@H](CCCCC)C(=O)N2CCC[C@H]2C(=O)N[C@@H](C(C)(C)C)C(=O)N[C@@H](CO)C(=O)N[C@H](C(=O)N[C@@H](CCC(=O)NCCCCCCCCCCC(=O)O)C(=O)O)CSCC(=O)N[C@@H](Cc2ccccc2)C(=O)N[C@@H](Cc2ccc(O)cc2)C(=O)N[C@@H](CC(=O)O)C1=O [Example 2142] ({CH2CO}-FYD[NHexGly]Y[Ahp(2)]NR[NMeNle][Ahp(2)]P[Tle]SC[γGlu][Aun]-OH; thioether N-14),32.5
2,CCCCCCN1CC(=O)N[C@@H](Cc2ccc(O)cc2)C(=O)N[C@@H](CCCCC)C(=O)N[C@@H](CC(N)=O)C(=O)N[C@@H](CCCN)C(=O)N(C)[C@@H](CCCC)C(=O)N[C@@H](CCCCC)C(=O)N2CCC[C@H]2C(=O)N[C@@H](C(C)(C)C)C(=O)N[C@@H](CO)C(=O)N[C@H](C(=O)N[C@@H](CCC(=O)NCCCCCCCCCCC(=O)O)C(=O)O)CSCC(=O)N[C@@H](Cc2ccccc2)C(=O)N[C@@H](Cc2c[nH]c3ccccc23)C(=O)N[C@@H](CC(=O)O)C1=O [Example 2144] ({CH2CO}-FWD[NHexGly]Y[Ahp(2)]N[Orn][NMeNle][Ahp(2)]P[Tle]SC[γGlu][Aun]-OH; thioether N-14),39
3,CCCCCCN1CC(=O)N[C@@H](Cc2ccc(O)cc2)C(=O)N[C@@H](CCCC)C(=O)N[C@@H](CC(N)=O)C(=O)N[C@@H](CCCNC(=N)N)C(=O)N(C)[C@@H](CCCC)C(=O)N[C@@H](CCCCC)C(=O)N(C)[C@@H](C)C(=O)N[C@@H](C(C)C)C(=O)N[C@@H](CO)C(=O)N[C@H](C(=O)N[C@@H](CC(=O)NCCOCCOCC(=O)NCCCCCCCCCCC(=O)O)C(=O)O)CSCC(=O)N[C@@H](Cc2ccccc2)C(=O)N[C@@H](Cc2c[nH]c3ccccc23)C(=O)N[C@@H](CC(=O)O)C1=O [Example 2172] ({CH2CO}-FWD[NHexGly]Y[Nle]NR[NMeNle][Ahp(2)][NMeA]VSC[βAsp][AEEA][Aun]-OH; thioether N-14),30.6
4,CCCCCCN1CC(=O)N[C@@H](Cc2ccc(O)cc2)C(=O)N[C@@H](CCCC)C(=O)N[C@@H](CC(N)=O)C(=O)N[C@@H](CCCNC(=N)N)C(=O)N(C)[C@@H](CCCC)C(=O)N[C@@H](CCCCC)C(=O)N(C)[C@@H](CCCC)C(=O)N[C@@H](C(C)(C)C)C(=O)N[C@@H](CO)C(=O)N[C@H](C(=O)N[C@@H](CC(=O)NCCOCCOCC(=O)NCCCCCCCCCCC(=O)O)C(=O)O)CSCC(=O)N[C@@H](Cc2ccccc2)C(=O)N[C@@H](Cc2c[nH]c3ccccc23)C(=O)N[C@@H](CC(=O)O)C1=O [Example 2173] ({CH2CO}-FWD[NHexGly]Y[Nle]NR[NMeNle][Ahp(2)][NMeNle][Tle]SC[βAsp][AEEA][Aun]-OH; thioether N-14),35.1
5,CCCCCCN1CC(=O)N[C@@H](Cc2ccc(O)cc2)C(=O)N[C@@H](CCCC)C(=O)N[C@@H](CC(N)=O)C(=O)N[C@@H](CCCNC(=N)N)C(=O)N(C)[C@@H](Cc2ccccc2)C(=O)N[C@@H](CCCCC)C(=O)N2CCC[C@H]2C(=O)N[C@@H](C(C)C)C(=O)N[C@@H](CO)C(=O)N[C@H](C(=O)N[C@@H](CC(=O)NCCOCCOCC(=O)NCCCCCCCCCCC(=O)O)C(=O)O)CSCC(=O)N[C@@H](Cc2ccccc2)C(=O)N[C@@H](Cc2c[nH]c3ccccc23)C(=O)N[C@@H](CC(=O)O)C1=O [Example 2177] ({CH2CO}-FWD[NHexGly]Y[Nle]NR[NMeF][Ahp(2)]PVSC[βAsp][AEEA][Aun]-OH; thioether N-14),38.4
6,CCCCCCN1CC(=O)N[C@@H](Cc2ccc(O)cc2)C(=O)N[C@@H](CCCC)C(=O)N[C@@H](CC(N)=O)C(=O)N[C@@H](CCCNC(=N)N)C(=O)N(C)[C@@H](CCCC)C(=O)N[C@@H](CCCCC)C(=O)N(C)[C@@H](CC(C)C)C(=O)N[C@@H](C(C)CC)C(=O)N[C@@H](CO)C(=O)N[C@H](C(=O)N[C@@H](CC(=O)NCCOCCOCC(=O)NCCCCCCCCCCC(=O)O)C(=O)O)CSCC(=O)N[C@@H](Cc2ccccc2)C(=O)N[C@@H](Cc2c[nH]c3ccccc23)C(=O)N[C@@H](CC(=O)O)C1=O (stereo partly shown) [Example 2178] ({CH2CO}-FWD[NHexGly]Y[Nle]NR[NMeNle][Ahp(2)][NMeL][Ile(3ξ)]SC[βAsp][AEEA][Aun]-OH; thioether N-14),46.7
7,CCCCCCN1CC(=O)N[C@@H](Cc2ccc(O)cc2)C(=O)N[C@@H](CCCC)C(=O)N[C@@H](CC(N)=O)C(=O)N[C@@H](CCCNC(=N)N)C(=O)N(C)[C@@H](CCCC)C(=O)N[C@@H](CCCCC)C(=O)N(C)[C@@H](CC(C)C)C(=O)N[C@@H](C(C)(C)C)C(=O)N[C@@H](CO)C(=O)N[C@H](C(=O)N[C@@H](CC(=O)NCCOCCOCC(=O)NCCCCCCCCCCC(=O)O)C(=O)O)CSCC(=O)N[C@@H](Cc2ccccc2)C(=O)N[C@@H](Cc2c[nH]c3ccccc23)C(=O)N[C@@H](CC(=O)O)C1=O [Example 2179] ({CH2CO}-FWD[NHexGly]Y[Nle]NR[NMeNle][Ahp(2)][NMeL][Tle]SC[βAsp][AEEA][Aun]-OH; thioether N-14),30.2

# Next, values leading:
row,IC50 [nM],Structure (SMILES)
1,26.5,CCCCCCN1CC(=O)N[C@@H](Cc2ccc(O)cc2)C(=O)N[C@@H](CCCCC)C(=O)N[C@@H](CC(N)=O)C(=O)N[C@@H](CCCN)C(=O)N(C)[C@@H](CCCC)C(=O)N[C@@H](CCCCC)C(=O)N2CCC[C@H]2C(=O)N[C@@H](C(C)(C)C)C(=O)N[C@@H](CC(=O)O)C(=O)N[C@H](C(=O)N[C@@H](CCC(=O)NCCCCCCCCCCC(=O)O)C(=O)O)CSCC(=O)N[C@@H](Cc2ccccc2)C(=O)N[C@@H](Cc2ccc(O)cc2)C(=O)N[C@@H](CC(=O)O)C1=O [Example 2141] ({CH2CO}-FYD[NHexGly]Y[Ahp(2)]N[Orn][NMeNle][Ahp(2)]P[Tle]DC[γGlu][Aun]-OH; thioether N-14)
2,29.4,CCCCCCN1CC(=O)N[C@@H](Cc2ccc(O)cc2)C(=O)N[C@@H](CCCCC)C(=O)N[C@@H](CC(N)=O)C(=O)N[C@@H](CCCN)C(=O)N(C)[C@@H](CCCC)C(=O)N[C@@H](CCCCC)C(=O)N2CCC[C@H]2C(=O)N[C@@H](C(C)(C)C)C(=O)N[C@@H](CO)C(=O)N[C@H](C(=O)N[C@@H](CCC(=O)NCCCCCCCCCCC(=O)O)C(=O)O)CSCC(=O)N[C@@H](Cc2ccccc2)C(=O)N[C@@H](Cc2ccc(O)cc2)C(=O)N[C@@H](CC(=O)O)C1=O [Example 2143] ({CH2CO}-FYD[NHexGly]Y[Ahp(2)]N[Orn][NMeNle][Ahp(2)]P[Tle]SC[γGlu][Aun]-OH; thioether N-14)
3,19.8,CCCCCCN1CC(=O)N[C@@H](Cc2ccc(O)cc2)C(=O)N[C@@H](CCCC)C(=O)N[C@@H](CC(N)=O)C(=O)N[C@@H](CCCNC(=N)N)C(=O)N(C)[C@@H](CCCC)C(=O)N[C@@H](CCCCC)C(=O)N(C)[C@@H](C)C(=O)N[C@@H](C(C)(C)C)C(=O)N[C@@H](CO)C(=O)N[C@H](C(=O)N[C@@H](CC(=O)NCCOCCOCC(=O)NCCCCCCCCCCC(=O)O)C(=O)O)CSCC(=O)N[C@@H](Cc2ccccc2)C(=O)N[C@@H](Cc2c[nH]c3ccccc23)C(=O)N[C@@H](CC(=O)O)C1=O [Example 2169] ({CH2CO}-FWD[NHexGly]Y[Nle]NR[NMeNle][Ahp(2)][NMeA][Tle]SC[βAsp][AEEA][Aun]-OH; thioether N-14)
4,28.8,CCCCCCN1CC(=O)N[C@@H](Cc2ccc(O)cc2)C(=O)N[C@@H](CCCC)C(=O)N[C@@H](CC(N)=O)C(=O)N[C@@H](CCCNC(=N)N)C(=O)N(C)[C@@H](CCCC)C(=O)N[C@@H](CCCCC)C(=O)N(C)[C@@H](C)C(=O)N[C@@H](C(C)CC)C(=O)N[C@@H](CO)C(=O)N[C@H](C(=O)N[C@@H](CC(=O)NCCOCCOCC(=O)NCCCCCCCCCCC(=O)O)C(=O)O)CSCC(=O)N[C@@H](Cc2ccccc2)C(=O)N[C@@H](Cc2c[nH]c3ccccc23)C(=O)N[C@@H](CC(=O)O)C1=O (stereo partly shown) [Example 2171] ({CH2CO}-FWD[NHexGly]Y[Nle]NR[NMeNle][Ahp(2)][NMeA][Ile(3ξ)]SC[βAsp][AEEA][Aun]-OH; thioether N-14)
5,16.6,CCCCCCN1CC(=O)N[C@@H](Cc2ccc(O)cc2)C(=O)N[C@@H](CCCC)C(=O)N[C@@H](CC(N)=O)C(=O)N[C@@H](CCCNC(=N)N)C(=O)N(C)[C@@H](C)C(=O)N[C@@H](CCCCC)C(=O)N2CCC[C@H]2C(=O)N[C@@H](C(C)C)C(=O)N[C@@H](CO)C(=O)N[C@H](C(=O)N[C@@H](CC(=O)NCCOCCOCC(=O)NCCCCCCCCCCC(=O)O)C(=O)O)CSCC(=O)N[C@@H](Cc2ccccc2)C(=O)N[C@@H](Cc2c[nH]c3ccccc23)C(=O)N[C@@H](CC(=O)O)C1=O [Example 2174] ({CH2CO}-FWD[NHexGly]Y[Nle]NR[NMeA][Ahp(2)]PVSC[βAsp][AEEA][Aun]-OH; thioether N-14)
6,19.8,CCCCCCN1CC(=O)N[C@@H](Cc2ccc(O)cc2)C(=O)N[C@@H](CCCC)C(=O)N[C@@H](CC(N)=O)C(=O)N[C@@H](CCCNC(=N)N)C(=O)N[C@@H](Cc2ccc(C(=O)O)cc2)C(=O)N[C@@H](CCCCC)C(=O)N2CCC[C@H]2C(=O)N[C@@H](C(C)C)C(=O)N[C@@H](CO)C(=O)N[C@H](C(=O)N[C@@H](CC(=O)NCCOCCOCC(=O)NCCCCCCCCCCC(=O)O)C(=O)O)CSCC(=O)N[C@@H](Cc2ccccc2)C(=O)N[C@@H](Cc2c[nH]c3ccccc23)C(=O)N[C@@H](CC(=O)O)C1=O [Example 2176] ({CH2CO}-FWD[NHexGly]Y[Nle]NR[Phe(4-COOH)][Ahp(2)]PVSC[βAsp][AEEA][Aun]-OH; thioether N-14)
